The values below come from ChEMBL document CHEMBL4007445, “Design, synthesis, and biological evaluation of imidazo[1,2-b]pyridazine derivatives as mTOR inhibitors” (Eur J Med Chem, 2017).

One data set deals with MCF7. The data set can be described thus: Antiproliferative activity against human MCF7 cells after 72 hrs by SRB assay. In kind it is functional, cell-based. Particulars: MCF7, 72 h. A general note: In SRB staining, fixed cells bind dye roughly in proportion to their protein.
Data set [1] deals with PI3-kinase p110-alpha/p85-alpha (Homo sapiens) (UniProt P27986+P42336). The experiment in a line: Inhibition of human PI3K p110alpha/p85alpha at 10 uM using phosphatidylinositol 4,5-bisphosphate as substrate after 30 mins by HTRF assay relative to control. In kind it is protein-complex assay. (TR-FRET usually uses a lanthanide donor and a delayed reading to cut background.)

The test system of another data set is HEK293. The data set can be described thus: Antiproliferative activity against HEK293 cells after 72 hrs by SRB assay. In kind it is cell-based. Particulars: Homo sapiens, HEK293, 72 h.
Data set [2] is described as follows: Antiproliferative activity against human U87 cells after 72 hrs by SRB assay. In kind it is functional, cell-based, U-87MG ATCC. The following applies: U-87 MG.
The target of data set [3] is PI3K p110 beta/p85 alpha (Homo sapiens) (UniProt P27986+P42338). The experiment in a line: Inhibition of human PI3K p110beta/p85alpha at 10 uM using phosphatidylinositol 4,5-bisphosphate as substrate after 30 mins by HTRF assay relative to control. In kind it is protein-complex assay.
PI3K p110 beta/p85 alpha (Homo sapiens), sequence (P27986 2-724 limits assumed): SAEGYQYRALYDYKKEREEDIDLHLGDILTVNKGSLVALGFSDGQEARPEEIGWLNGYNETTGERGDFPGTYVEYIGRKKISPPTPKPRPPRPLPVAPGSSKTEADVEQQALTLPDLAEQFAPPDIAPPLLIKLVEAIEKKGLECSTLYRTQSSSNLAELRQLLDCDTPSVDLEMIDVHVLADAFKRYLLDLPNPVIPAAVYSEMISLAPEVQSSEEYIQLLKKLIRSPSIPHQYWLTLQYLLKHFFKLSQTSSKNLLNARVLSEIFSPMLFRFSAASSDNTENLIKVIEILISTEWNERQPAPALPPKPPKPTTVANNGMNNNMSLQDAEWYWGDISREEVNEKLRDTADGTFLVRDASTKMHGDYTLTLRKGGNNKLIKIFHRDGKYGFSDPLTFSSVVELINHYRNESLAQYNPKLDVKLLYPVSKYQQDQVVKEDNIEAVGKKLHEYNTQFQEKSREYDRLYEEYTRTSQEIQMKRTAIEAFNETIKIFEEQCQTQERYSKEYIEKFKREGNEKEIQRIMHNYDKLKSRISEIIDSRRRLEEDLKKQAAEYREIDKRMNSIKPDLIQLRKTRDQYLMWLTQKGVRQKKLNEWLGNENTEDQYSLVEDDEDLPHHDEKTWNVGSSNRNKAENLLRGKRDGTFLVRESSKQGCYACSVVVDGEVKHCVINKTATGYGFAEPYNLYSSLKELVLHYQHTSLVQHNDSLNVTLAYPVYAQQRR
PI3K p110 beta/p85 alpha (Homo sapiens), sequence (P42338 whole entry partner): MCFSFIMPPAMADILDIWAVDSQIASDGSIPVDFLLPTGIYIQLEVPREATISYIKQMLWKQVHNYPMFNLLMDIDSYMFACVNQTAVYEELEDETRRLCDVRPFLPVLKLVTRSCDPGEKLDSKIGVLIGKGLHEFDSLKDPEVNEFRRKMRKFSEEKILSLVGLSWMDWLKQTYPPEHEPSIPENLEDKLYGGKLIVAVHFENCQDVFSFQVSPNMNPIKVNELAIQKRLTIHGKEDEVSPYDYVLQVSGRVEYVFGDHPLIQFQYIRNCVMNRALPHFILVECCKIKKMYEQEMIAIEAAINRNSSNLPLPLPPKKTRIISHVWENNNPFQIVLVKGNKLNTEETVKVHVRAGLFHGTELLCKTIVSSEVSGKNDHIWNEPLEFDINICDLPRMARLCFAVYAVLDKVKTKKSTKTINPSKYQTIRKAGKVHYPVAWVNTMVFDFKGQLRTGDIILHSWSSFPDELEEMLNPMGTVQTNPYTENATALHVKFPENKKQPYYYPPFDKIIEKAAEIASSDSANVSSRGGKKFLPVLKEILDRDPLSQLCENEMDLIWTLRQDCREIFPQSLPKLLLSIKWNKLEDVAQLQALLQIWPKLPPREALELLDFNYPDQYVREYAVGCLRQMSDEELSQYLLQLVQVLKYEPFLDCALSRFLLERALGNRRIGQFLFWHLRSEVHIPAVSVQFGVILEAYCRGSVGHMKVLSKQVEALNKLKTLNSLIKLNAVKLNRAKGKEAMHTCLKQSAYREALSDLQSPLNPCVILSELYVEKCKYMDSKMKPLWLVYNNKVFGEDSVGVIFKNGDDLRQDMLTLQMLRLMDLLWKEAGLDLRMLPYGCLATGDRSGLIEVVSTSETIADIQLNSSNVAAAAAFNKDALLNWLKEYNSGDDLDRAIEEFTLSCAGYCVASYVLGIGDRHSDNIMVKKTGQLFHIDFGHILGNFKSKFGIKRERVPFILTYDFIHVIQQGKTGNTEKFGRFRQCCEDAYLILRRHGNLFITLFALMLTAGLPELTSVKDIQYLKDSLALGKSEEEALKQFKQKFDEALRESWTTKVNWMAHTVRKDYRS
Data set [4] has as its target PI3-kinase p110-delta/p85-alpha (Homo sapiens) (UniProt P27986+O00329). The experiment in a line: Inhibition of human PI3K p110delta/p85alpha at 10 uM using phosphatidylinositol 4,5-bisphosphate as substrate after 30 mins by HTRF assay relative to control. The data set is classed as protein-complex assay.
Data set [5] concerns the target PI3-kinase p110-alpha/p85-alpha (Homo sapiens, UniProt P42336). The data set can be described thus: Inhibition of human PI3K p110alpha/p85alpha using phosphatidylinositol 4,5-bisphosphate as substrate after 30 mins by HTRF assay. In kind it is protein-complex assay.
Another data set concerns A-375. The data set can be described thus: Antiproliferative activity against human A375 cells after 72 hrs by SRB assay. The data set is classed as functional, cell-based. Particulars: A-375, 72 h.
Data set [6] deals with A549. The experiment in a line: Antiproliferative activity against human A549 cells after 72 hrs by SRB assay. In kind it is functional, cell-based. The following applies: A549, 72 h.
The subject of another data set is NCI-H460. The experiment in a line: Antiproliferative activity against human NCI-H460 cells after 72 hrs by SRB assay. In kind it is functional, cell-based. Particulars: NCI-H460, 72 h.
For data set [7], the target named is Phosphatidylinositol 4,5-bisphosphate 3-kinase catalytic subunit gamma isoform (Homo sapiens) (UniProt P48736). The data set can be described thus: Inhibition of human PI3K p120gamma at 10 uM using phosphatidylinositol 4,5-bisphosphate as substrate after 30 mins by HTRF assay relative to control.
Phosphatidylinositol 4,5-bisphosphate 3-kinase catalytic subunit gamma isoform (Homo sapiens), sequence (P48736 whole entry, looked up, canonical isoform): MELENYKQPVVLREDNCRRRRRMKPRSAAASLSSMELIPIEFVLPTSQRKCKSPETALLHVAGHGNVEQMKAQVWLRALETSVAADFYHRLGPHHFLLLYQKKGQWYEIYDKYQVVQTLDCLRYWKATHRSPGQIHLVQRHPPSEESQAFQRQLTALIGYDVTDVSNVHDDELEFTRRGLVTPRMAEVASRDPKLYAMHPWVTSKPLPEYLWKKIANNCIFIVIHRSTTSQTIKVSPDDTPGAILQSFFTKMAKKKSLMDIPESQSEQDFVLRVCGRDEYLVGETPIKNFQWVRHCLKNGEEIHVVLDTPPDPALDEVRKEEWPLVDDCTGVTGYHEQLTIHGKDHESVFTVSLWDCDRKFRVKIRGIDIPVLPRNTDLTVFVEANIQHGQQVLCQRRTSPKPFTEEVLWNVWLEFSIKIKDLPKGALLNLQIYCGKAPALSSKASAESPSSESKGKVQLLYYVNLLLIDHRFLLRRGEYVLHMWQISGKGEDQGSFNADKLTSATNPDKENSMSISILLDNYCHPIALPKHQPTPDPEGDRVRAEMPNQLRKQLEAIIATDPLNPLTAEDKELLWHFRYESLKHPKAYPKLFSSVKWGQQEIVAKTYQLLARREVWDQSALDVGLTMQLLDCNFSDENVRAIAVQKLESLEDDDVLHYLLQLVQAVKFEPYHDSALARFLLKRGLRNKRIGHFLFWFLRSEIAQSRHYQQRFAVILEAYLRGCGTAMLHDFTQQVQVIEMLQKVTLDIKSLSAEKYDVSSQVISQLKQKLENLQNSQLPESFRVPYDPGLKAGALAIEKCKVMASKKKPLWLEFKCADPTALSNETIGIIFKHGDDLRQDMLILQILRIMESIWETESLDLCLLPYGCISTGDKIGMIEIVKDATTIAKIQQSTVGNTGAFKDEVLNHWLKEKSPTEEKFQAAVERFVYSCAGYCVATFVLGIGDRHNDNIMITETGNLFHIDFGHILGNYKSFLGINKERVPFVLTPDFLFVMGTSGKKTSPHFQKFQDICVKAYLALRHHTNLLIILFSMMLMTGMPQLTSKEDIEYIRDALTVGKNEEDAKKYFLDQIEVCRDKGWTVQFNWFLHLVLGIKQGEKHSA
The test system of data set [8] is A549. The experiment in a line: Cell cycle arrest in human A549 cells assessed as accumulation at S phase at 10 uM after 48 hrs by propidium iodide staining based flow cytometry (reference value: 45.31%). In kind it is functional. A general note: Flow cytometry measures light scatter and fluorescence of single cells or particles in a stream.
Data set [9] relates to A549. The data set can be described thus: Antitumor activity against human A549 cells xenografted in Balb/c nude mouse assessed sa tumor growth inhibition at 30 mg/kg, iv administered 7 times on day 14, 16, 18, 21, 23, 25, 28 post tumor implantation measured after 1 week relative to control. The data set is classed as functional. Particulars: read-out: TGI.
Data set [10] has as its system A549. The data set can be described thus: Cell cycle arrest in human A549 cells assessed as accumulation at G1 phase at 10 uM after 48 hrs by propidium iodide staining based flow cytometry (reference value: 40.21%). The data set is classed as functional.
Data set [11] concerns A549. The experiment in a line: Induction of apoptosis in human A549 cells assessed as necrotic cells at 10 uM after 48 hrs by Annexin V-FITC/propidium iodide staining based flow cytometry (reference value: 0.1%). In kind it is functional.
The target of data set [12] is T1, Serine/threonine-protein kinase mTOR (Homo sapiens, UniProt P42345). The experiment in a line: Inhibition of human N-terminal FLAG-tagged mTOR (1362-end residues) in presence of [gamma33P]ATP after 40 mins.
Data set [13] concerns A549. The experiment in a line: Induction of apoptosis in human A549 cells assessed as early apoptotic cells at 10 uM after 48 hrs by Annexin V-FITC/propidium iodide staining based flow cytometry (reference value: 3.6%). In kind it is functional.
For data set [14], the system named is A549. The experiment in a line: Cell cycle arrest in human A549 cells assessed as accumulation at G2 phase at 10 uM after 48 hrs by propidium iodide staining based flow cytometry (reference value: 14.49%). In kind it is functional.
The test system of data set [15] is Mus musculus. The experiment in a line: Toxicity in Balb/c nude mouse xenografted with human A549 cells assessed as changes in body weight at 5 to 30 mg/kg, iv administered 7 times on day 14, 16, 18, 21, 23, 25, 28 post tumor implantation. The data set is classed as organism-based. The following applies: in vivo.
The test system of data set [16] is A549. The data set can be described thus: Inhibition of mTORC2 in human A549 cells assessed as reduction in Akt phosphorylation at Ser-473 residue at 5 uM up to 2 hrs by Western blot method. In kind it is cell-based.
Data set [17] deals with A549. The experiment in a line: Induction of apoptosis in human A549 cells assessed as live cells at 10 uM after 48 hrs by Annexin V-FITC/propidium iodide staining based flow cytometry (reference value: 90%). In kind it is functional.
The test system of data set [18] is A549. The experiment in a line: Inhibition of mTORC1 in human A549 cells assessed as reduction in S6 phosphorylation at […] residues at 5 uM up to 2 hrs by Western blot method. In kind it is cell-based.
Data set [19] deals with T1, Serine/threonine-protein kinase mTOR. The data set can be described thus: Inhibition of mTOR in human A549 cells assessed as reduction in p70S6K phosphorylation at T389 residue after 2 hrs by HTRF method. The data set is classed as cell-based.
Data set [20] concerns A549. The experiment in a line: Induction of apoptosis in human A549 cells assessed as late apoptotic cells at 10 uM after 48 hrs by Annexin V-FITC/propidium iodide staining based flow cytometry (reference value: 6.3%). In kind it is functional.
The test system of data set [21] is Mus musculus. The experiment in a line: Toxicity in Balb/c nude mouse xenografted with human A549 cells assessed as mortality at 5 to 30 mg/kg, iv administered 7 times on day 14, 16, 18, 21, 23, 25, 28 post tumor implantation. In kind it is organism-based. The following applies: in vivo.
Data set [22] in a line: Solubility of the compound. The data set is classed as physicochemical.

The source made the active and inactive calls. The calls are words filed in the database; no cut-off is given here. Where only a bound is given, the exact number is not on record here.

A word on the IC50: it is the point on the concentration scale where inhibition reaches its midpoint. What is called inhibition is the change of the read-out against control, counted positive when it falls.

PI3-kinase p110-alpha/p85-alpha, sequence (P27986 whole entry): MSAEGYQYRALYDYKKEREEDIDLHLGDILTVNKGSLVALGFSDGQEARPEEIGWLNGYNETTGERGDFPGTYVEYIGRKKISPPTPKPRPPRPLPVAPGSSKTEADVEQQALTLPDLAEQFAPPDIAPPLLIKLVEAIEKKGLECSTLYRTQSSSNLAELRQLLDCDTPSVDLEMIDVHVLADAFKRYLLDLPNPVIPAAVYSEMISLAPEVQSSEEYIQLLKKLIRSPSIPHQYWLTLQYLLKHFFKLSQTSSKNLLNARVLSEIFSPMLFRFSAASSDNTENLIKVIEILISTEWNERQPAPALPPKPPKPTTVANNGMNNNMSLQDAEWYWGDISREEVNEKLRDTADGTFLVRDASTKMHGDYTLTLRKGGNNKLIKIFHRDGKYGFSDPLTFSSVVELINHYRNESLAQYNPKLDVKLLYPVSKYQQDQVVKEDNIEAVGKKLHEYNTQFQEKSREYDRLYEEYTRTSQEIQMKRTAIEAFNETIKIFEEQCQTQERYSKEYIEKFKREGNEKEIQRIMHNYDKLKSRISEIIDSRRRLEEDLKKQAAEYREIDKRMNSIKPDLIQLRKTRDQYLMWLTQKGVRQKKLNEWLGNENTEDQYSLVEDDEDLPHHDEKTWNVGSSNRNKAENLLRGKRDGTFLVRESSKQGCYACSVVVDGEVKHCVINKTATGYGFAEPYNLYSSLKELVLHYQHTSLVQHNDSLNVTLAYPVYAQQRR
PI3-kinase p110-alpha/p85-alpha, sequence (P42336 whole entry): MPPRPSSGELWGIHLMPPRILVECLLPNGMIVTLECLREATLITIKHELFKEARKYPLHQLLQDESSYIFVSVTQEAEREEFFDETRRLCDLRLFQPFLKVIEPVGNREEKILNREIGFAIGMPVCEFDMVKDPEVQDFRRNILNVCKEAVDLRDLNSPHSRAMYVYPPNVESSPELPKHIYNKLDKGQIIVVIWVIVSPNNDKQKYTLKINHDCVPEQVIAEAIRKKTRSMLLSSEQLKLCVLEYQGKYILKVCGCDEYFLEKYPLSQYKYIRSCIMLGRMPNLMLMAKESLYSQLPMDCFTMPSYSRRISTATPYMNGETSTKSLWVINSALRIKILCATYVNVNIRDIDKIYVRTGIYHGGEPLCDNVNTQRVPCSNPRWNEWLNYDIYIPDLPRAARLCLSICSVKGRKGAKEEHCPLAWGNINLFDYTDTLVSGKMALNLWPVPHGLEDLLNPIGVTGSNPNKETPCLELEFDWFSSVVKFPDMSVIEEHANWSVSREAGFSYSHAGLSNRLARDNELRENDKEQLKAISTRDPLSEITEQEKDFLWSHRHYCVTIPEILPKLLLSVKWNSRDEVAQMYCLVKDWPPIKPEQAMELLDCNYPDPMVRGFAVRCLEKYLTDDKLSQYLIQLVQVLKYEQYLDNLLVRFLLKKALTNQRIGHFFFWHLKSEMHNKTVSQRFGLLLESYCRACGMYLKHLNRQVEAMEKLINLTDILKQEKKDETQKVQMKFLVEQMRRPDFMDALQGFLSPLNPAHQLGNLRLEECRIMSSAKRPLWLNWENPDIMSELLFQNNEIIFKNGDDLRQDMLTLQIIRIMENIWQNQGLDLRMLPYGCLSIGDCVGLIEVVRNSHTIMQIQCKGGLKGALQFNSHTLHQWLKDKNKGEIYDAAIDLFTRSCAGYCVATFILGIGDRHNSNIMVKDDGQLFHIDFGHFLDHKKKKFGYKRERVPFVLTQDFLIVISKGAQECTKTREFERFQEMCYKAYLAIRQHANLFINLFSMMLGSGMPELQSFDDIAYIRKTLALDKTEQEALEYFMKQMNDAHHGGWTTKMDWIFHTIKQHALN

As for `COc1ccc(-c2ccc3c(N4CCOC[C@@H]4C)nc(N4CCOC[C@@H]4C)nc3n2)cc1CO` [AZD-8055], the IC50 in the data set with MCF7 was determined as 0.14 µM; in the data set with HEK293, 1.4 µM; in [2] it was 0.19 µM; in data set [5] it was 5.58 µM; in the data set on A-375, 0.12 µM; with A549 [6], 0.05 µM. In the data set on NCI-H460, this compound registered a concentration for half-maximal inhibition (IC50) of 0.01 µM. The inhibition stood at 70% in data set [1], 12% in data set [3], 59% in data set [4] and 29% in data set [7].

Consider `Oc1cccc(-c2nc(N3CCOCC3)c3oc4ncccc4c3n2)c1`, for which the inhibition in data set [1] turned out to be 101%; in [3], 99%; in [4] it was 96%; in [7] it was 98%.

For `C[C@H]1COCCN1c1cc(-c2ccc(NC(=O)Nc3cccnc3)cc2)nn2ccnc12`, the IC50 in the data set on MCF7 worked out at 40 µM; in data set [12] it was 0.067 µM; in the data set with HEK293 it was 9 µM; in [2] it was 13.5 µM; in data set [5], 4.42 µM; in the data set with A-375, 11.3 µM. Moreover, the IC50 in the data set with A549 [6] was found to be 0.05 µM; with NCI-H460, 0.47 µM. Also, the Activity was 33.07% with A549 [8]; 55.32% in the data set with A549 [10]; 0% with A549 [11]; 3.5% in the data set with A549 [13]; 7.61% with A549 [14]; “Non-Toxic” in the data set with Mus musculus [15]. The Activity in the data set with A549 [17] is 87.8%; with A549 [20], 8.8%; in the data set with Mus musculus [21] it was “Non-Toxic”. In addition, in the data set on A549 [9], the inhibition in vivo at 30 mg/kg turned out to be 37.8%. In addition, the inhibition in data set [1] is 59%; in [3] it was 24%; in data set [4], 19%; in data set [19], “Dose-dependent effect”; in data set [7] it was 40%. Also, the inhibition result in the data set on A549 [16] and with A549 [18] was “Active” each time.

Consider `C[C@H]1COCCN1c1cc(-c2ccc(NC(=O)Nc3ccncc3)cc2)nn2ccnc12`, for which the IC50 with MCF7 turned out to be 13.1 µM; in data set [12], 0.062 µM; with HEK293, 5.2 µM; in [2], 7.4 µM; in data set [5] it was 3.11 µM; with A-375 it was 5.8 µM. Moreover, the IC50 in the data set with A549 [6] was 0.02 µM; in the data set with NCI-H460, 0.67 µM. Also, the Activity in the data set on A549 [8] is 35.19%; with A549 [10], 50.95%; in the data set with A549 [11] it was 0%; in the data set on A549 [13], 3.7%; in the data set with A549 [14], 13.86%; with A549 [17], 89.9%. For the same compound, the Activity with A549 [20] is reported as 6.3%. Also, the inhibition was 64% in data set [1]; 33% in [3]; 29% in data set [4]; “Dose-dependent effect” in data set [19]; 39% in data set [7]. Also, the inhibition entry with A549 [16] and in the data set with A549 [18] was “Active” throughout.

With `CCc1cnc2c(N3CCOCC3)cc(-c3ccc(NC(=O)Nc4cccnc4)cc3)nn12`, the IC50 with MCF7 is greater than 40 µM; in the data set with HEK293, greater than 40 µM; in data set [2], greater than 40 µM; in the data set on A-375, greater than 40 µM; with A549 [6], 1.9 µM; in the data set on NCI-H460, greater than 40 µM. For the same compound, the solubility result in data set [22] is recorded as “Insoluble”.

Take `Cc1cnc2c(N3CCOC[C@@H]3C)cc(-c3ccc(NC(=O)Nc4cccnc4)cc3)nn12`: the IC50 with MCF7 is 7.8 µM; in the data set with HEK293, 8.2 µM; in data set [2], 10.8 µM; in the data set on A-375, 3.3 µM; in the data set with A549 [6], 1.2 µM; in the data set on NCI-H460 it was 7.3 µM. For the same compound, in data set [22], the solubility entry is recorded as “Insoluble”.

As for `CCc1cnc2c(N3CCOC[C@@H]3C)cc(-c3ccc(NC(=O)Nc4ccncc4)cc3)nn12`, the IC50 in the data set with MCF7 came to 4.7 µM; in the data set with HEK293 it was 7.5 µM; in data set [2] it was 5.1 µM; with A-375, 4.1 µM; in the data set with A549 [6] it was 5.9 µM; in the data set with NCI-H460, 2.8 µM. For the same compound, the solubility result in data set [22] was “Insoluble”.
